Data taken from patent US8658637B2, “Glucocorticoid mimetics, methods of making them, pharmaceutical compositions and uses thereof” (Boehringer Ingelheim International GmbH, priority 2006, dated 2014).
pEC50: −log10 of the molar value.

Tested on: IL-6 production in human foreskin fibroblast cells
Assay: Inhibition of IL-6 Production in Fibroblasts (Cell Assay for Transrepression)
Format: cell-based
Details: IL-1 stimulated human foreskin fibroblasts; for pEC50: read-out: agonistic activity (EC50) by inhibiting IL-6 production in Fibroblasts; for Emax: read-out: efficacy by inhibiting IL-6 production in Fibroblasts
Method: 2. Inhibition of IL-6 Production in Fibroblasts (Cell Assay for Transrepression)
Human foreskin fibroblast cells produce IL-6 in response to stimulation by proinflammatory cytokine IL-1.
Human foreskin fibroblast cells (ATCC Cat. No. CRL-2429) are plated on 96 well plates at 5,000 cells per well the day before use, in Iscove's Modified Dulbecco's Media (GibcoBRL Life Technologies Cat. No. 12440-053) supplemented with 10% charcoal filtered FBS (Clonetech Cat. No. SH30068) and Gentamycin (GibcoBRL Life Technologies Cat. No. 15710-064). On the next day, media in the wells is replaced with fresh media. Cells are treated with IL-1 (rhIL-1α, R&D Systems Cat. No. 200-LA) to a final concentration of 1 ng/mL, and with test compounds to final concentrations of 10^−5 M to 10^−8 M, in a total volume of 200 μL per well. Samples are done in duplicates. […] Positive control wells receive IL-1 only and represent maximum (or 100%) amount of IL-6 production. Plates are incubated at 37° C. overnight (15 to 18 hours), and supernatants are harvested at the end of incubation. IL-6 levels in the supernatants are determined by the ELISA kits for IL-6 (MedSystems Diagnostics GmbH, Vienna, Austria, Cat. No. BMS213TEN) according to manufacture's instructions. The extent of inhibition of IL-6 by test compounds is expressed in percentage relative to positive controls. IC50 values of test compounds are derived by non-linear curve fitting.

## C=CCn1cc(C(O)(c2ccc3c(cnn3-c3ccc(F)cc3)c2)C(F)(F)F)c2ccc(Br)cc21 (stereo not shown) [1-(1-Allyl-6-bromo-1H-indol-3-yl)-2,2,2-trifluoro-1-[1-(4-fluorophenyl)-1H-indazol-5-yl]ethanol]
  pEC50: ≥ 6.00
  Emax: > 50%

## C=CCCn1cc(C(O)(c2ccc3c(cnn3-c3ccc(F)cc3)c2)C(F)(F)F)c2ccccc21 (stereo not shown) [1-(1-But-3-enyl-1H-indol-3-yl)-2,2,2-trifluoro-1-[1-(4-fluorophenyl)-1H-indazol-5-yl]ethanol]
  pEC50: ≥ 6.00
  Emax: > 50%

## N#Cc1nn(CC(O)CO)cc1C(O)(c1ccc2c(cnn2-c2ccc(F)cc2)c1)C(F)(F)F (stereo not shown) [1-(2,3-Dihydroxypropyl)-4-{2,2,2-trifluoro-1-[1-(4-fluorophenyl)-1H-indazol-5-yl]-1-hydroxyethyl}-1H-pyrazole-3-carbonitrile]
  pEC50: ≥ 6.00
  Emax: > 50%

## CCOC(=O)c1cc(C(O)(c2ccc3c(cnn3-c3ccc(F)cc3)c2)C(F)(F)F)cn1CC(O)CO (stereo not shown) [1-(2,3-Dihydroxypropyl)-4-{2,2,2-trifluoro-1-[1-(4-fluorophenyl)-1H-indazol-5-yl]-1-hydroxyethyl}-1H-pyrrole-2-carboxylic acid ethyl ester]
  pEC50: ≥ 6.00
  Emax: > 50%

## C=CCCn1cc(C(O)(c2ccc3c(cnn3-c3ccc(F)cc3)c2)C(F)(F)F)c2ccc(Br)cc21 (stereo not shown) [1-(6-Bromo-1-but-3-enyl-1H-indol-3-yl)-2,2,2-trifluoro-1-[1-(4-fluorophenyl)-1H-indazol-5-yl]ethanol]
  pEC50: ≥ 6.00
  Emax: > 50%

## OC(c1ccc2c(cnn2-c2ccc(F)cc2)c1)(c1c[nH]c2c(Cl)nccc12)C(F)(F)F (stereo not shown) [1-(7-Chloro-1H-pyrrolo[2,3-c]pyridin-3-yl)-2,2,2-trifluoro-1-[1-(4-fluorophenyl)-1H-indazol-5-yl]ethanol]
  pEC50: ≥ 6.00
  Emax: > 50%

## C=CCn1cc(C(O)(c2ccc3c(cnn3-c3ccc(F)cc3)c2)C(F)(F)F)c(C#N)n1 (stereo not shown) [1-Allyl-4-{2,2,2-trifluoro-1-[1-(4-fluorophenyl)-1H-indazol-5-yl]-1-hydroxyethyl}-1H-pyrazole-3-carbonitrile]
  pEC50: ≥ 6.00
  Emax: > 50%

## C=CCn1cc(C(O)(c2ccc3c(cnn3-c3ccc(F)cc3)c2)C(F)(F)F)cc1C(=O)OCC (stereo not shown) [1-Allyl-4-{2,2,2-trifluoro-1-[1-(4-fluorophenyl)-1H-indazol-5-yl]-1-hydroxyethyl}-1H-pyrrole-2-carboxylic acid ethyl ester]
  pEC50: ≥ 6.00
  Emax: > 50%

## C=CCn1cc(C(O)(c2ccc3c(cnn3-c3ccc(F)cc3)c2)C(F)(F)F)c2ccn(C)c(=O)c21 (stereo not shown) [1-Allyl-6-methyl-3-{2,2,2-trifluoro-1-[1-(4-fluorophenyl)-1H-indazol-5-yl]-1-hydroxyethyl}-1,6-dihydropyrrolo[2,3-c]pyridin-7-one]
  pEC50: ≥ 6.00
  Emax: > 50%

## CC1(C)OCC(Cn2cc(C(O)(c3ccn4c(-c5ccc(F)cc5)ncc4c3)C(F)(F)F)c3ccccc32)O1 (stereo not shown) [1-[1-(2,2-Dimethyl-1,3-dioxolan-4-ylmethyl)-1H-indol-3-yl]-2,2,2-trifluoro-1-[3-(4-fluorophenyl)imidazo[1,5-a]pyridin-7-yl]ethanol]
  pEC50: ≥ 6.00
  Emax: > 50%

## OCCn1cc(C(O)(c2ccc3c(cnn3-c3ccc(F)cc3)c2)C(F)(F)F)c2ncnc(Cl)c21 (stereo not shown) [1-[4-Chloro-5-(2-hydroxyethyl)-5H-pyrrolo[3,2-d]pyrimidin-7-yl]-2,2,2-trifluoro-1-[1-(4-fluorophenyl)-1H-indazol-5-yl]ethanol]
  pEC50: ≥ 6.00
  Emax: > 50%

## Cn1cc(C(O)(c2ccc3c(cnn3-c3cccnc3)c2)C(F)(F)F)c2ccccc21 (stereo not shown) [2,2,2-Trifluoro-1-(1-methyl-1H-indol-3-yl)-1-(1-pyridin-3-yl-1H-indazol-5-yl)ethanol]
  pEC50: ≥ 6.00
  Emax: > 50%

## Cn1cc(C(O)(c2ccc3c(cnn3-c3ccsc3)c2)C(F)(F)F)c2ccccc21 (stereo not shown) [2,2,2-Trifluoro-1-(1-methyl-1H-indol-3-yl)-1-(1-thiophen-3-yl-1H-indazol-5-yl)ethanol]
  pEC50: ≥ 6.00
  Emax: > 50%

## Cn1cc(-n2ncc3cc(C(O)(c4cn(C)c5ccccc45)C(F)(F)F)ccc32)cn1 (stereo not shown) [2,2,2-Trifluoro-1-(1-methyl-1H-indol-3-yl)-1-[1-(1-methyl-1H-pyrazol-4-yl)-1H-indazol-5-yl]ethanol]
  pEC50: ≥ 6.00
  Emax: > 50%

## Cn1cc(C(O)(c2ccc3c(c2)nnn3-c2ccc(F)cc2)C(F)(F)F)c2ccccc21 (stereo not shown) [2,2,2-Trifluoro-1-[1-(4-fluorophenyl)-1H-benzotriazol-5-yl]-1-(1-methyl-1H-indol-3-yl)ethanol]
  pEC50: ≥ 6.00
  Emax: > 50%

## OC(c1ccc2c(cnn2-c2ccc(F)cc2)c1)(c1c[nH]c2ncccc12)C(F)(F)F (stereo not shown) [2,2,2-Trifluoro-1-[1-(4-fluorophenyl)-1H-indazol-5-yl]-1-(1H-pyrrolo[2,3-b]pyridin-3-yl)ethanol]
  pEC50: ≥ 6.00
  Emax: > 50%

## COc1nccc2c(C(O)(c3ccc4c(cnn4-c4ccc(F)cc4)c3)C(F)(F)F)c[nH]c12 (stereo not shown) [2,2,2-Trifluoro-1-[1-(4-fluorophenyl)-1H-indazol-5-yl]-1-(7-methoxy-1H-pyrrolo[2,3-c]pyridin-3-yl)ethanol]
  pEC50: ≥ 6.00
  Emax: > 50%

## [O-][n+]1cccc2c(C(O)(c3ccc4c(cnn4-c4ccc(F)cc4)c3)C(F)(F)F)c[nH]c21 (stereo not shown) [2,2,2-Trifluoro-1-[1-(4-fluorophenyl)-1H-indazol-5-yl]-1-(7-oxy-1H-pyrrolo[2,3-b]pyridin-3-yl)ethanol]
  pEC50: ≥ 6.00
  Emax: > 50%

## OC(c1ccc2c(cnn2-c2ccc(F)cc2)c1)(c1cn(CCN2CCOCC2)c2ccccc12)C(F)(F)F (stereo not shown) [2,2,2-Trifluoro-1-[1-(4-fluorophenyl)-1H-indazol-5-yl]-1-[1-(2-morpholin-4-ylethyl)-1H-indol-3-yl]ethanol]
  pEC50: ≥ 6.00
  Emax: > 50%

## OC(c1ccc2c(cnn2-c2ccc(F)cc2)c1)(c1cn(CC2CCCO2)c2ccccc12)C(F)(F)F (stereo not shown) [2,2,2-Trifluoro-1-[1-(4-fluorophenyl)-1H-indazol-5-yl]-1-[1-(tetrahydro-furan-2-ylmethyl)-1H-indol-3-yl]ethanol]
  pEC50: ≥ 6.00
  Emax: > 50%

## Cn1cc(C(O)(c2ccc3c(cnn3-c3ccc(F)nc3)c2)C(F)(F)F)c2ccccc21 (stereo not shown) [2,2,2-Trifluoro-1-[1-(6-fluoropyridin-3-yl)-1H-indazol-5-yl]-1-(1-methyl-1H-indol-3-yl)ethanol]
  pEC50: ≥ 6.00
  Emax: > 50%

## Cn1cc(C(O)(c2ccn3c(-c4ccc(F)cc4)ncc3c2)C(F)(F)F)c2ccccc21 (stereo not shown) [2,2,2-Trifluoro-1-[3-(4-fluorophenyl)imidazo[1,5-a]pyridin-7-yl]-1-(1-methyl-1H-indol-3-yl)ethanol]
  pEC50: ≥ 6.00
  Emax: > 50%

## NC(=O)Cn1cc(C(O)(c2ccc3c(cnn3-c3ccc(F)cc3)c2)C(F)(F)F)c2cccnc21 (stereo not shown) [2-(3-{2,2,2-Trifluoro-1-[1-(4-fluorophenyl)-1H-indazol-5-yl]-1-hydroxyethyl}pyrrolo[2,3-b]pyridin-1-yl)acetamide]
  pEC50: ≥ 6.00
  Emax: > 50%

## CNC(=O)Cn1cc(C(O)(c2ccc3c(cnn3-c3ccc(F)cc3)c2)C(F)(F)F)c2ccc(Br)cc21 (stereo not shown) [2-(6-Bromo-3-{2,2,2-trifluoro-1-[1-(4-fluorophenyl)-1H-indazol-5-yl]-1-hydroxyethyl}indol-1-yl)-N-methylacetamide]
  pEC50: ≥ 6.00
  Emax: > 50%

## Cn1ccc2c(C(O)(c3ccc4c(cnn4-c4ccc(F)cc4)c3)C(F)(F)F)cn(CC(N)=O)c2c1=O (stereo not shown) [2-(6-Methyl-7-oxo-3-{2,2,2-trifluoro-1-[1-(4-fluorophenyl)-1H-indazol-5-yl]-1-hydroxyethyl}-6,7-dihydropyrrolo[2,3-c]pyridin-1-yl)acetamide]
  pEC50: ≥ 6.00
  Emax: > 50%

## NC(=O)Cn1cc(C(O)(c2ccc3c(cnn3-c3ccc(F)cc3)c2)C(F)(F)F)c2ccnc(Cl)c21 (stereo not shown) [2-(7-Chloro-3-{2,2,2-trifluoro-1-[1-(4-fluorophenyl)-1H-indazol-5-yl]-1-hydroxyethyl}pyrrolo[2,3-c]pyridin-1-yl)acetamide]
  pEC50: ≥ 6.00
  Emax: > 50%

## NC(=O)Cn1cc(C(O)(c2ccc3c(cnn3-c3cccnc3)c2)C(F)(F)F)c2ccccc21 (stereo not shown) [2-{3-[2,2,2-Trifluoro-1-hydroxy-1-(1-pyridin-3-yl-1H-indazol-5-yl)ethyl]indol-1-yl}acetamide]
  pEC50: ≥ 6.00
  Emax: > 50%

## OCC(O)Cn1cc(C(O)(c2ccc3c(c2)nnn3-c2ccc(F)cc2)C(F)(F)F)c2ccccc21 (stereo not shown) [3-(3-{2,2,2-Trifluoro-1-[1-(4-fluorophenyl)-1H-benzotriazol-5-yl]-1-hydroxyethyl}indol-1-yl)propane-1,2-diol]
  pEC50: ≥ 6.00
  Emax: > 50%

## NC(=O)CCn1cc(C(O)(c2ccc3c(cnn3-c3ccc(F)cc3)c2)C(F)(F)F)c2ccccc21 (stereo not shown) [3-(3-{2,2,2-Trifluoro-1-[1-(4-fluorophenyl)-1H-indazol-5-yl]-1-hydroxyethyl}indol-1-yl)propionamide]
  pEC50: ≥ 6.00
  Emax: > 50%
